Assay [1] can be described thus: Metal-ion selectivity measurement (emission-ratiometric response). In kind it is physicochemical. The settings on record: liposomes, pH 7.0. The method, then: FIG. 5C illustrates an exemplary table providing exemplary photophysical properties of Formula I, Formula II, and/or a derivative thereof (e.g., for example probe 8) and its Zn(II)-probe complex in PIPES buffer containing 100 μM of 4:1 DMPC:DMPG liposomes (pH 7.0, 10 mM PIPES, 0.1 M KCl, 25° C.). The fluorescence response of the probe 8 (10 PM) was measured in the presence of 100 μM 4:1 DMPC:DMPG liposomes (pH 7.0, 10 mM PIPES, 0.1 M KCl, 25° C.) and an excess of selected biologically relevant divalent metal ions (FIG. 5A). […]
A solution of Formula I, Formula II, and/or a derivative thereof (e.g., for example probe 8) (10 μM) in Chelex®-PIPES buffer (10 mM, 0.1 M KCl, pH 7.0, 25° C.) containing 100 μM of liposomes (4:1 mixture of DMPC and DMPG) prepared in a quartz cuvette with a 1-cm pathlength. A fluorescence spectrum was acquired over the spectral window of 415-700 nm with excitation at 405 nm. Under magnetic stirring, the solution was supplemented with each divalent metal cation (8.0 μM, which corresponds to 80% fractional saturation of the probe, or 2.0 mM Ca(II) and Mg(II) ions), and a fluorescence spectrum was immediately acquired. […] The fluorescence spectrum was acquired after 10 min equilibration to ensure complete formation of the probe 8 Zn(II)-complex. […]

The subject of assay [2] is live mouse fibroblast 3T3 cells. Nature of the assay: Ratiometric imaging of labile Zn(II) by TPEM (excitation at 750 nm). It is filed as cell-based. As to the method: With reference to FIG. 7A, emission-ratiometric imaging of labile Zn(II) pools in live mouse fibroblast 3T3 cells with Formula I, Formula II, and/or a derivative thereof (e.g., for example probe 8) by TPEM (excitation at 750 nm). (A) of FIG. 7A Left: The emission was collected with 520 nm-600 nm (BP2) and 440 nm-495 nm (BP1) bandpass filters respectively. Right: Intensity ratio images with R=BP2/BP1. (B) of FIG. 7A Left: Ratio images (BP2/BP1) before (prior to t=5 min) and after the addition of 50 μM ZnSO4 and 5.0 μM pyrithione. Addition of TPEN at t=15 min resulted the reversal of the initial of fluorescence ratio change. (C) of FIG. 7A Mean fluorescence ratio of the cytoplasmic region averaged over 10 cells (P values calculated for n=10 using a two-tailed test). (D) of FIG. 7A Time course of the average ratio change for the mean fluorescence ratio in the cytosol averaged over 10 cells.
To evaluate the Zn(II)-dependent ratiometric response of Formula I and/or Formula IA (e.g., for example probe 8) in live cells, imaging experiments were performed with live mouse fibroblasts (3T3) as model cell line.
In various embodiments, mouse fibroblast (3T3) cells were grown on poly-L-lysine treated glass bottom culture dishes (MatTek) to 90% confluency in DMEM growth media supplemented with 10% bovine calf serum, and 1% penicillin-streptomycin. Before imaging, the media was replaced with pre-warmed colorless serum-free DMEM (1% penicillin-streptomycin, and 1% sodium pyruvate) containing 1.0 μM of probe 8. The cells were incubated at 37° C. under an atmosphere of humidified air containing 5% CO2 for 15 mins. The incubation solution was replaced with prewarmed colorless serum free DMEM. Images were acquired at 37° C., 8% humidity, and 5% CO2 using a Zeiss LSM NLO 710 microscope equipped with a femtosecond pulsed Ti:sapphire laser and a blue 405 nm laser. Scanning fluorescence micrographs were acquired with excitation at 405 nm or 750 nm and the emission was simultaneously collected with bandpass ranges of 495-440 nm (BP1) and 600-520 nm (BP2). Image J was used to evaluate the change in fluorescence emission ratio over time as previously described. The emission ratio for each region of interest was averaged at each time point.
TPEN solid was fully dissolved in anhydrous DMSO to a concentration of 3.0 mM. The stock solution was further diluted to 1.0 mM in pre-warmed phenol-red-free DMEM media before each imaging experiments. The ZnSO4 stock solution was prepared in DI H2O and the pyrithione stock solution was prepared in anhydrous DMSO to a concentration of 3.0 mM. The stock solution of Zn(II)/pyrithione was prepared and diluted with phenol red free DMEM. To determine the limiting emission intensity ratios Rmin and Rmax, mouse fibroblast cells were supplemented with Zn(II)-pyrithione (50 μM ZnSO4 and 5.0 μM pyrithione), and then TPEN (100 μM).

From patent US20240410831A1, “Multi-Mode Zinc-Selective Emission-Ratiometric Fluorescent Probes for Biological Application” (Georgia Tech Research Corporation, priority 2023, published 2024) come the findings set out here.

As to `COc1ccc2c(c1)C(C)(C)c1nc(-c3cccc(CN(Cc4ncccn4)Cc4ncccn4)n3)sc1-2` [probe 8], in assay [1] (2.0 mM of either metal ion), the “fluorescence response to Ca(II) and Mg(II)” value was “Neither Ca(II) nor Mg(II) resulted in any significant fluorescence change”. Further, the “fluorescence response to divalent transition metals” value in assay [1] (0.8 molar equivalents of metal, 10 μM probe) is reported as “quenching of the fluorescence”. For the same compound, in assay [2] (3T3 cells, TPEM), the cellular uptake entry is on record as “readily internalized”. For the same compound, the “average fluorescence ratio R (BP2/BP1)” value in assay [2] (after 50 μM ZnSO4 and 5.0 μM pyrithione, TPEM 750 nm) was 1.35±0.16; in assay [2] (after TPEN, TPEM 750 nm) it was 0.59±0.05; in assay [2] (basal, 1.0 μM probe, TPEM 750 nm), 0.59±0.06. In addition, the “increase of fluorescence ratio” value in assay [2] (after Zn(II)/pyrithione against basal, TPEM 750 nm) is recorded as “more than 2 fold”.
